# Data reported in US5792742A, “Fibrin-binding peptide fragments of fibronectin” (New York University, priority 1994, dated 1998).
# Tests used:
# [1] = Heparin affinity chromatography; format: binding; settings: NaCl gradient in 0.05M tris buffer, pH 8.0
# From the text: Upon warming the column to room temperature, a 25.9 kDa fragment was eluted with FBB (Peak a, FIG. 3). […] 1.0M NaCl in 0.05M tris buffer, pH 8.0. The yield of the 11 kDa fragment from the intact molecule was approximately 5% (w/w). This is the same as the theoretical yield. The extinction coefficient has been determined to be approximately 4.5, based on a comparison between A280 and protein concentration determination by Coomassie Protein Assay (Pierce Chemical Co.).
# [2] = previously shown (Baron et al. 1990); cited from earlier work
# [3] = system: fibrin
# Experimental: Since the anti-Fn detection system described for the ELISA above could not be used in Fn competition assays employing the intact Fn molecule or the 25.8 kDa proteolytic fragment, purified Fn was biotinylated using water soluble NHS-LC-Biotin (Pierce Chemm. Co.; according to the manufacturer's instructions) and binding to fibrin detected by alkaline phosphatase conjugated streptavidin (diluted 1/500 in FBBT/BSA) for 1 hour at 22° C., followed by the addition of p-nitrophenyl phosphate, as described above. To ensure that the biotinylation of the Fn had not affected its ability to bind to fibrin, fibrin-binding activity was tested by incubating increasing concentrations of biotinylated Fn (10-300 ng/0.1 ml FBB) with the fibrin-coated wells (200 ng) and detected (see FIG. 28A) using alkaline phosphatase-conjugated streptavidin and the reaction developed as described for Direct Elisa.
# To compare the relative fibrin-binding affinities of the ^4 F1.^5 F1 recombinant module pair and the 25.9 kDa proteolytic fragment (^1 F1-^5 F1) with that of the native Fn molecule, these purified proteins were competed with biotinylated plasma Fn for binding to fibrin coated wells and the extent of inhibition of binding assessed by incubation with alkaline phosphatase-conjugated streptavidin. […] Biotinylated Fn (100 ng/0.1 ml FBB: 2.3 nM) was combined with increasing concentrations (0-10 μM) of either unlabeled Fn, the 25.9 kDa proteolytic fragment, or the separate ^4 F1.^5 F1, and ^10 F1 recombinant modules and incubated with the fibrin-coated microtiter wells for 1 hour at 22° C. […] Bound biotinylated Fn was quantitated as described above.
# [4] = system: fibrin; experiment: Fibrin-SEPHAROSE affinity chromatography (binding and elution); parameters: species or system bovine
# Experimental: Bovine fibrinogen was cross-linked to CNBr-activated SEPHAROSE™ (5 mg/ml beads) according to the manufacturer's instructions. Coupled fibrinogen was subsequently converted to fibrin by incubation with human thrombin to a final concentration of 5 NIH units/ml and 100 K.I. (kallikrein inhibitory) units/ml of aprotinin (in 0.05M Tris-HCI buffer, pH 7.6, containing 0.1M NaCl and 0.01M EDTA) for three hours, at room temperature (Gold, et al. (1983) Biochemistry 22, 4113-4119).
# 1.0M NaCl in 0.05M tris buffer, pH 8.0.
# The fibrin-binding activity of the proteolytically derived 25.9 kDa fragment of Fn was determined by its ability to bind to a fibrin affinity matrix. […] FBB was used to equilibrate and wash the column. Following warming of the column to 22° C., the column was washed with FBB until absorbance at 280 nm (A280) was less than 0.01, and bound protein eluted with 0.05M Tris-HCl, 0.5M NaCl, 6M urea buffer, pH 7.6.
# The module (500 μg/1.0 ml) was incubated for 4 hours (while rotating) at 4° C. in the presence of 1.0 ml fibrin-SEPHAROSE™ (5 mg fibrin/ml SEPHAROSE™ beads) equilibrated in […] Tris-HCl, 0.1M NaCl buffer, pH 7.6.
# The 11 KDa peptide (50 μg/0.206 ml) was radiolabeled using the IODO-BEAD method (Pierce Chemical). The peptide was added to one IODO-BEAD in the presence of 100 μCi ^125 I (17.4 Ci/mg, New England Nuclear) and incubated on ice for 10 minutes. The bead was removed and the free ^125 I removed by chromatography through a PD10 column containing SEPHADEX™ G-25 (Pharmacia). […] The radioiodinated 11 kDa fibrin-binding peptide (500 μg/1.5 ml) was combined with 1 ml of fibrin-SEPHAROSE™ (5 mg fibrin/ml beads) equilibrated with 50 mM Tris-HCl, 0.1M NaCl buffer, pH 7.6, and rotated for 4 hours, at 4° C. The mixture was poured onto a disposable column (0.6 cm×8.0) and the unbound protein washed through. The column was equilibrated to room temperature and washed with the equilibration buffer.
substance,measurement,setting,value
"25.9 kDa fragment: 25.9 kDa N-terminal proteolytic fibrin-binding fragment of fibronectin (^1 F1-^5 F1), residues 17-246 of SEQ ID NO:1",NaCl concentration at elution from heparin affinity chromatography,[1],0.25 M
same,"heparin-binding activity, affinity",[2],intermediate
same,fold higher concentration over intact Fn needed for 50% inhibition,[3],7.5 fold
same,maximal inhibition of biotinylated Fn binding to fibrin,"[3]; 10 μM of protein (5,000 molar excess)",75%
same,IC50,"[3]; read-out: IC50, 50% inhibition of binding of biotinylated Fn to fibrin, biotinylated Fn 2.3 nM, 200 ng fibrin, 1 hour 22° C.",150 nM
same,Ki,[3]; read-out: KI estimated from IC50 (Cheng and Prussoff),145 nM
same,% of protein applied eluted on warming the column to 22° C. (room temperature),[4]; FBB buffer,approximately 8%
same,"% of protein applied eluted with 0.5M NaCl, 6.0M urea buffer",[4]; after warming to 22° C.,approximately 17%
same,% of protein applied retained by fibrin-SEPHAROSE,"[4]; binding at 4° C., 500 μg applied",25%
same,% of protein applied retained by fibrin-Sepharose with increasing amounts applied,[4]; increasing amounts applied to a fixed volume of fibrin-Sepharose,25%
same,relative affinity for fibrin (from elution conditions),[4]; temperature change vs denaturing conditions (6M urea or 50% ethylene glycol) for elution,lower affinity
